Results from US8778890B2, “Leptin antagonist and methods of use” (Temple University—of the Commonwealth System of Higher …, priority 2009, dated 2014).
Read-outs that look alike come from different tables or passages of the source. Blank lines part the entries; values can stand above or below the molecule they belong to. Where a SMILES comes first, the peptide text is derived from it. Where no end group is shown, it is not given here. [ ]: non-standard residue; d: D form. NMeR = CN[C@@H](CCCNC(=N)N)C(=O)O; aThr = C[C@H](O)[C@H](N)C(=O)O; Nva = CCC[C@H](N)C(=O)O; Ahx = NCCCCCC(=O)O; βAla = NCCC(=O)O

What was measured:
serum stability = type: in vitro ADME, mouse
Experimental: The stabilities of the peptides of amino acid sequence SEQ ID NO:4 and SEQ ID NO:49 were determined in 25% serum, and 100% serum, in terms of their half-lives. For serum stability studies, […] of an aqueous peptide stock solution, containing about 0.8 mg/mL peptide, were added to 2.5 mL of 25% or 100% aqueous pooled mouse serum. The peptide-serum mixture was thermostated at 37° C. After 0 min, 45 min, 60 min, 90 min, 2 h, 4 h, and 8 h, three 210 μL of the samples of peptides were taken and precipitated by the addition of 40 μL of 15% aqueous trichloroacetic acid. The samples were stored at 4° C. for 20 min and centrifuged. The supernatants were immediately frozen in dry-ice, and […], of each were analyzed on RP-HPLC and/or MALDI-MS.

[1] = system: ObR-positive cancer cells (brain and breast); type: cell-based
Experimental: The effect of the peptides of the invention on the proliferation of ObR-positive cancer cells (brain and breast) in the presence (IC50) or absence (EC50) of exogenous leptin protein (6 nM) is summarized in Table 1.

[2] = system: MCF-7 breast cancer cells (ObR-positive); type: cell-based, human
Excerpt: (§1) Immunol. Methods 94:57-63).

[3] = organ toxicity testing after 14 days of treatment (Example 4); type: in vivo, mice and rats; details: any conditions
Experimental: (§2) Six weeks old Black/6 mice (mixed race) and F344 female rats were grown on regular lab chow and had access to food and water ad libidum. Treatment started at day 0, with four mice (2 males and 2 females) and 4 rats per group. The animals received the peptide of amino acid sequence SEQ ID NO:4 or physiological salt solution once daily. The mice and rats were dosed according to the following schedule: • Group 1: Mice, salt solution intraperitoneally; • Groups 2 and 3: Mice 0.1 mg/kg/day or 0.01 mg/kg/day peptide of amino acid sequence SEQ ID NO:4 intraperitoneally in 100 microliter salt solution; • Groups 4 and 5: Mice 1 mg/kg/day or 0.1 mg/kg/day peptide of amino acid sequence SEQ ID NO:4 subcutaneously (under the shoulder blade) in 100 microliter salt solution; • Groups 6 and 7: Mice 10 mg/kg/day or 1 mg/kg/day peptide of amino acid sequence SEQ ID NO:4 orally in 100 microliter salt solution; • Group 8: Rats, 10 microliter salt solution, intranasally; • Group 9: Rats. 0.1 mg/kg/day peptide of amino acid sequence SEQ ID NO:4 intranasally in 10 microliter salt solution.
After 14 days the animals were sacrificed and their liver, brain, kidneys and spleen were submitted for toxicity testing.

[4] = weight gain of growing mice; type: in vivo
Experimental: as §2, with “solution. […]” for “solution.”
The therapeutic utility of full ObR antagonists was studied further by the ability of peptide of amino acid sequence SEQ ID NO:4 to increase the appetite of normal, growing mice as measured by accelerated weight gain and increased food intake upon various modes of peptide administration. […]

[5] = chronic and acute toxicity; type: in vivo, mice
Experimental: The peptide of amino acid sequence SEQ ID NO:4 was evaluated for chronic and acute toxicity in mice. Three female Black/6 mice received intraperitoneally either bolus 0.5 mg/kg or 2 mg/kg or 30 mg/kg peptide SEQ ID NO:4, or 0.5 mg/kg/day or 2 mg/kg/day peptide SEQ ID NO:4 over a 10 day period. Two days after termination of the experiments, the mice were weighed and sacrificed, and the livers, brains, spleens and kidneys were weighed.

[6] = system: LN229 (glioma) cells (ObR-positive); type: cell-based; details: 2 h
Excerpt: as §1

[7] = system: two brain tumor cell lines; test: leptin receptor antagonism in brain tumor cell lines; type: cell-based
[8] = system: ObR-positive cancer cells (brain and breast); type: cell-based; details: presence of exogenous leptin (6 nM)
[9] = mouse, in vivo, ip
[10] = 25% aqueous pooled mouse serum, 37° C., read-out: half-life in 25% serum
[11] = 100% pooled mouse serum, 37° C., read-out: half-life in 100% serum
[12] = ip bolus 0.5, 2 or 30 mg/kg, or 0.5 or 2 mg/kg/day for 10 days
[13] = mouse serum, read-out: half-life in mouse serum

Molecule: CCC[C@H](NC(=O)[C@H](CCC(=O)O)NC(=O)[C@@H](N)[C@@H](C)O)C(=O)N[C@H](C(=O)N[C@@H](C)C(=O)N[C@@H](CC(C)C)C(=O)N[C@@H](CO)C(=O)N[C@@H](CCCNC(=N)N)C(=O)NCCCCCC(N)=O)C(C)C [SEQ ID NO:4, Thr-Glu-Nva-Val-Ala-Leu-Ser-Arg-AcpNH2] (H-TE[Nva]VALSR[Ahx]-NH2)
- half-life (serum stability; [10]): 20 min
- half-life (serum stability; [11]): 5 min
- EC50 [1]: > 1000 nM
- IC50 ([2]; 2 h): 2 to 3 nM
- toxic effects in liver, brain, kidneys and spleen [3]: No obvious toxic effects
- necropsy of the major organs ([4]; C57BL/6 mice): no signs of toxicity
- NOAEL ([5]; female, Black/6, mouse, in vivo, ip, intraperitoneal bolus, read-out: highest studied dose found not toxic, acute): 30 mg/kg
- NOAEL at 240 h ([5]; female, Black/6, mouse, in vivo, ip, intraperitoneal, 10 days, read-out: highest studied dose found not toxic, chronic): 2 mg/kg/day
- gross necropsy, treated versus non-treated [5, 12]: no alteration
- liver, brain, spleen and kidney weights, treated versus non-treated [5, 12]: identical
- IC50 [6]: 2 to 3 nM

Molecule: CCC[C@H](NC(=O)[C@H](CCC(=O)O)NC(=O)[C@@H](CO)NC(C)=O)C(=O)N[C@H](C(=O)N[C@@H](C)C(=O)N[C@@H](CC(C)C)C(=O)N[C@@H](CO)C(=O)N(C)[C@@H](CCCNC(=N)N)C(=O)NCCC(N)=O)C(C)C [SEQ ID NO:6, (D)-Ser-Glu-Nva-Val-Ala-Leu-Ser-N-MeArg-bAlaNH2] (Ac-[dS]E[Nva]VALS[NMeR][βAla]-NH2; N-terminus assumed)
- agonistic activity [7]: no agonistic activity
- cell growth without stimulation with leptin protein [7]: does not influence cell growth
- IC100, antagonistic activity against the leptin receptor ([7]; two brain tumor cell lines in vitro): 10 to 100 pM
- EC50 [1]: > 1000 nM
- pharmacology [1]: super antagonist
- IC100 [8]: <1 nM

Molecule: CCC[C@H](NC(=O)[C@H](CCCNC(=N)N)NC(=O)[C@H](CO)NC(=O)[C@H](CC(C)C)NC(=O)[C@H](C)NC(=O)[C@H](CCC)NC(=O)[C@H](CCC)NC(=O)[C@H](CCC(=O)O)NC(=O)[C@@H](N)[C@@H](C)O)C(N)=O [SEQ ID NO:47, Thr-Glu-Nva-Nva-Ala-Leu-Ser-Arg-NvaNH2] (H-TE[Nva][Nva]ALSR[Nva]-NH2)
- half-life (serum stability; [13]): 8 min
- EC50 [1]: > 1000 nM

Molecule: Alexa 680-labeled peptide of amino acid sequence SEQ ID NO:49: peptide of SEQ ID NO:49 labeled with the fluorescent dye Alexa 680 ([aThr]E[Nva]VALSR[Ahx]-NH2; not fully specified (N-terminus); printed as alloThr-Glu-Nva-Val-Ala-Leu-Ser-Arg-AcpNH2; also: Alexa 680 label, site not given here)
- migration into further tissues, blood-brain barrier penetration [9]: migrated into the tail, limbs and the brain

B1: leptin: neurohormone, native ObR ligand; human leptin purchased from R&D Systems (protein, listed as Homo sapiens)
chain: VPIQKVQDDTKTLIKTIVTRINDISHTQSVSAKQRVTGLDFIPGLHPILSLSKMDQTLAVYQQVLTSLPSQNVLQIANDLENLRDLLHLLAFSKSCSLPQTSGLQKPESLDGVLEASLYSTEVVALSRLQGSLQDILQQLDVSPEC
- reduction of normal weight gain compared to untreated mice ([4]; 0.1 mg/kg/day intraperitoneally, day 8): 5%

Now from value to molecule, other results behind:

- half-life (serum stability; [13]): 14 min
Molecule: CCC[C@H](NC(=O)[C@H](CCCNC(=N)N)NC(=O)[C@H](CO)NC(=O)[C@H](CC(C)C)NC(=O)[C@H](C)NC(=O)[C@H](CCC)NC(=O)[C@H](CCC)NC(=O)[C@H](CCC(=O)O)NC(=O)[C@@H](NC(C)=O)[C@@H](C)O)C(N)=O [SEQ ID NO:48, AcNH-Thr-Glu-Nva-Nva-Ala-Leu-Ser-Arg-NvaNH2] (Ac-TE[Nva][Nva]ALSR[Nva]-NH2)
- cell viability profile compared with the unprotected variant [2]: no change

- half-life (serum stability; [10]): 40 min
- half-life (serum stability; [11]): 10 min
- EC50 [1]: > 1000 nM
Molecule: CCC[C@H](NC(=O)[C@H](CCC(=O)O)NC(=O)[C@@H](N)[C@H](C)O)C(=O)N[C@H](C(=O)N[C@@H](C)C(=O)N[C@@H](CC(C)C)C(=O)N[C@@H](CO)C(=O)N[C@@H](CCCNC(=N)N)C(=O)NCCCCCC(N)=O)C(C)C [SEQ ID NO:49, alloThr-Glu-Nva-Val-Ala-Leu-Ser-Arg-AcpNH2] (H-[aThr]E[Nva]VALSR[Ahx]-NH2)

- EC50 [1]: > 500 nM
Molecule: CCC[C@H](NC(=O)[C@@H](N)CCC(=O)O)C(=O)N[C@H](C(=O)N[C@@H](C)C(=O)N[C@@H](CC(C)C)C(=O)N[C@@H](CO)C(=O)N[C@@H](CCCNC(=N)N)C(=O)NCCCCCC(N)=O)C(C)C [SEQ ID NO:51, Glu-Nva-Val-Ala-Leu-Ser-Arg-AcpNH2] (H-E[Nva]VALSR[Ahx]-NH2; N-terminus assumed)
- pharmacology [1]: weak full
- IC100 [8]: 100 nM
